According to patent US20040110821A1, “GAL3 receptor antagonists for the treatment of affective disorders” (priority 2002, published 2004):
Marks after values point to notes of the source that are not given here.

System: Male Sprague-Dawley rats
Assay: Rat Forced Swim Test (FST)
Assay type: in vivo
Details: for Climbing / Diving / Immobility / Swimming: single administration 1 hr before 5 min test; for overall profile in the Forced Swim Test (conclusion in words): rat, in vivo

For `CN(C)c1cc(Nc2ccc(Cl)c(Cl)c2)nc(N2CCN(Cc3ccccc3)CC2)n1` [Example 151], the Climbing (1 mg/kg p.o.) was “not significantly altered”, the Diving (1 mg/kg p.o.) was “not significantly altered” and the Immobility (1 mg/kg p.o.) was “did not significantly alter immobility”. The Swimming (1 mg/kg p.o.) was “significantly increased swimming”, the Climbing (3 mg/kg p.o.) was “not significantly altered” and the Diving (3 mg/kg p.o.) was “not significantly altered”. The Immobility (3 mg/kg p.o.) was “significantly decreased immobility”, the Swimming (3 mg/kg p.o.) was “significantly increased swimming” and the Climbing (10 mg/kg p.o.) was “not significantly altered”. The Diving (10 mg/kg p.o.) was “not significantly altered”, the Immobility (10 mg/kg p.o.) was “significantly decreased immobility” and the Swimming (10 mg/kg p.o.) was “significantly increased swimming”. The “overall profile in the Forced Swim Test (conclusion in words)” value (from here on “overall profile in the Forced Swim Test”) was “produces behavioral effects in the FST in rats that resemble those of antidepressants”.

In the case of `Cc1ccc(Nc2cc(N3CCCCC3)nc(N(C)CCc3ccccc3)n2)cc1` [Example 22], the Climbing (3 mg/kg p.o.) is reported as 2.0 ± 0.6 counts, the Diving (3 mg/kg p.o.) is reported as “not significantly altered” and the Immobility (3 mg/kg p.o.) is reported as 50 ± 0.9 counts. The Swimming (3 mg/kg p.o.) was “did not significant alter swimming behavior”, the Diving (3 mg/kg p.o., listed as EX22) was 0.4 ± 0.4 counts and the Swimming (3 mg/kg p.o., listed as EX22) was 7.6 ± 0.5 counts. The Climbing (10 mg/kg p.o.) was 2.9 ± 0.5 counts, the Diving (10 mg/kg p.o.) was “not significantly altered” and the Immobility (10 mg/kg p.o.) was “significant decrease in immobility”. The Swimming (10 mg/kg p.o.) was “significant increase in swimming”, the Diving (10 mg/kg p.o., listed as EX22) was 0.4 ± 0.3 counts and the Immobility (10 mg/kg p.o., listed as EX22) was 41 ± 1.3^c counts. For the same compound, the Swimming (10 mg/kg p.o., listed as EX22) was 15.3 ± 0.8^g counts, the Climbing (30 mg/kg p.o.) was “significant increase in climbing” and the Diving (30 mg/kg p.o.) was “not significantly altered”. The Immobility (30 mg/kg p.o.) was “significant decrease in immobility”, the Swimming (30 mg/kg p.o.) was “significantly greater increase in swimming behavior” and the Climbing (30 mg/kg p.o., listed as EX22) was 5.2 ± 1.0^a counts. For the same compound, the Diving (30 mg/kg p.o., listed as EX22) was 0.0 ± 0.0 counts, the Immobility (30 mg/kg p.o., listed as EX22) was 31 ± 2.8^b counts and the Swimming (30 mg/kg p.o., listed as EX22) was 23.2 ± 2.0^f counts. The “overall profile in the Forced Swim Test” value was “has antidepressant-like properties”.

In the case of `O=C1C(=Nc2ccc(C(F)(F)F)cc2)c2ccccc2N1c1ccccc1` [Example 95, 1-PHENYL-3-[[4-(TRIFLUOROMETHYL)PHENYL]IMINO]-1,3-DIHYDRO-2H-INDOL-2-ONE], the Climbing (3 mg/kg p.o.) is reported as “did not significantly alter swimming, climbing, immobility or diving behavior”, the Diving (3 mg/kg p.o.) is reported as “did not significantly alter swimming, climbing, immobility or diving behavior” and the Immobility (3 mg/kg p.o.) is reported as “did not significantly alter swimming, climbing, immobility or diving behavior”. For the same compound, the Swimming (3 mg/kg p.o.) was “did not significantly alter swimming, climbing, immobility or diving behavior”, the Immobility (10 mg/kg p.o.) was “significantly increased rat immobility” and the Swimming (10 mg/kg p.o.) was “significantly decreased swim behavior”. For the same compound, the Immobility (30 mg/kg p.o.) was “significantly increased rat immobility”, the Swimming (30 mg/kg p.o.) was “significantly decreased swim behavior” and the “overall profile in the Forced Swim Test” value was “does not produce antidepressant-like actions in the forced swim test”.

In the case of `O=C1C(=Nc2cc(Cl)cc(Cl)c2)c2ccccc2N1c1ccccc1` [Example 103, 3-[(3,5-DICHLOROPHENYL)IMINO]-1-PHENYL-1,3-DIHYDRO-2H-INDOL-2-ONE], the Climbing (3 mg/kg p.o.) is reported as “not significantly altered”, the Diving (3 mg/kg p.o.) is reported as “not significantly altered” and the Immobility (3 mg/kg p.o.) is reported as “did not significantly alter immobility”. The Swimming (3 mg/kg p.o.) was “did not significantly alter swimming behavior”, the Climbing (10 mg/kg p.o.) was “not significantly altered” and the Diving (10 mg/kg p.o.) was “not significantly altered”. For the same compound, the Immobility (10 mg/kg p.o.) was “did not significantly alter immobility”, the Swimming (10 mg/kg p.o.) was “did not significantly alter swimming behavior” and the Climbing (30 mg/kg p.o.) was “not significantly altered”. For the same compound, the Diving (30 mg/kg p.o.) was “not significantly altered”, the Immobility (30 mg/kg p.o.) was “significant decrease in immobility” and the Swimming (30 mg/kg p.o.) was “significantly greater increase in swimming behavior”. For the same compound, the “overall profile in the Forced Swim Test” value was “has antidepressant-like properties”.

`O=C1C(=Nc2cc(Cl)cc(Cl)c2)c2ccccc2N1c1ccccc1` [EX103] gave a Swimming (3 mg/kg p.o.) of 13.2 ± 1.9 counts.
